{
  "source": "ChEMBL document CHEMBL1152479",
  "about": "“Synthesis and in vitro antitumor activities of novel 4-anilinoquinazoline derivatives” (Eur J Med Chem, 2009)",
  "key": {"A431 (human)": {"system": "A431 (human)", "assay": "cells", "details": "A431, 72 h"}, "MCF-7 (human)": {"system": "MCF-7 (human)", "assay": "cells", "details": "MCF-7, 72 h"}},
  "data": [
    {"smiles": "COc1cc2ncnc(Nc3ccc(OC(F)(F)F)cc3)c2cc1OCCCSc1nc2ccccc2o1", "values": [
      {"measurement": "IC50", "setting": "A431 (human)", "result": 9.08, "unit": "µM"}
    ]},
    {"smiles": "C#Cc1cccc(Nc2ncnc3cc(OC)c(OCCCn4c(CCCC)nc(Cl)c4C=O)cc23)c1", "values": [
      {"measurement": "IC50", "setting": "A431 (human)", "result": 10.1, "unit": "µM"}
    ]},
    {"smiles": "COc1ccc(Nc2ncnc3cc(OC)c(OCCCSc4nc5ccccc5o4)cc23)cc1", "values": [
      {"measurement": "IC50", "setting": "A431 (human)", "result": 13.1, "unit": "µM"}
    ]},
    {"smiles": "CCCCc1nc(Cl)c(CO)n1CCCOc1cc2c(Nc3cccc(Br)c3)ncnc2cc1OC", "values": [
      {"measurement": "IC50", "setting": "A431 (human)", "result": 8.2, "unit": "µM"}
    ]},
    {"smiles": "CCCCc1nc(Cl)c(CO)n1CCCOc1cc2c(Nc3ccc(Br)cc3CC)ncnc2cc1OC", "values": [
      {"measurement": "IC50", "setting": "A431 (human)", "result": 10.6, "unit": "µM"}
    ]},
    {"smiles": "CCCCc1nc(Cl)c(C=O)n1CCCOc1cc2c(Nc3ccc(F)c(Cl)c3)ncnc2cc1OC", "values": [
      {"measurement": "IC50", "setting": "A431 (human)", "result": 5.02, "unit": "µM"}
    ]},
    {"smiles": "CCc1cc(Br)ccc1Nc1ncnc2cc(OC)c(OCCCSc3nc4ccccc4o3)cc12", "values": [
      {"measurement": "IC50", "setting": "A431 (human)", "result": 17.2, "unit": "µM"}
    ]},
    {"smiles": "COc1cc2ncnc(Nc3ccc(C)cc3)c2cc1OCCCSc1nc2ccccc2s1", "values": [
      {"measurement": "IC50", "setting": "A431 (human)", "result": 14.2, "unit": "µM"}
    ]},
    {"smiles": "CCCCc1nc(Cl)c(CO)n1CCCOc1cc2c(Nc3ccc(OC)cc3)ncnc2cc1OC", "values": [
      {"measurement": "IC50", "setting": "A431 (human)", "result": 20, "unit": "µM"}
    ]},
    {"smiles": "COc1cc2ncnc(Nc3cccc(C(F)(F)F)c3)c2cc1OCCCSc1nc2ccccc2o1", "values": [
      {"measurement": "IC50", "setting": "A431 (human)", "result": 4.03, "unit": "µM"},
      {"measurement": "IC50", "setting": "MCF-7 (human)", "result": 37.3, "unit": "µM"}
    ]},
    {"smiles": "CCCCc1nc(Cl)c(C=O)n1CCCOc1cc2c(Nc3ccc(OC)cc3)ncnc2cc1OC", "values": [
      {"measurement": "IC50", "setting": "A431 (human)", "result": 14, "unit": "µM"}
    ]},
    {"smiles": "CCCCc1nc(Cl)c(CO)n1CCCOc1cc2c(Nc3cccc(F)c3)ncnc2cc1OC", "values": [
      {"measurement": "IC50", "setting": "A431 (human)", "result": 17.7, "unit": "µM"}
    ]},
    {"smiles": "CCCCc1nc(Cl)c(C=O)n1CCCOc1cc2c(Nc3cccc(C(F)(F)F)c3)ncnc2cc1OC", "values": [
      {"measurement": "IC50", "setting": "A431 (human)", "result": 3.51, "unit": "µM"},
      {"measurement": "IC50", "setting": "MCF-7 (human)", "result": 38.8, "unit": "µM"}
    ]},
    {"smiles": "C#Cc1cccc(Nc2ncnc3cc(OC)c(OCCCn4c(CCCC)nc(Cl)c4CO)cc23)c1", "values": [
      {"measurement": "IC50", "setting": "A431 (human)", "result": 10, "unit": "µM"}
    ]},
    {"smiles": "CCCCc1nc(Cl)c(CO)n1CCCOc1cc2c(Nc3cccc(C(F)(F)F)c3)ncnc2cc1OC", "values": [
      {"measurement": "IC50", "setting": "A431 (human)", "result": 8.28, "unit": "µM"}
    ]},
    {"smiles": "COc1cc2ncnc(Nc3ccc(F)c(Cl)c3)c2cc1OCCCSc1nc2ccccc2o1", "values": [
      {"measurement": "IC50", "setting": "A431 (human)", "result": 4.05, "unit": "µM"},
      {"measurement": "IC50", "setting": "MCF-7 (human)", "result": 37, "unit": "µM"}
    ]},
    {"smiles": "CCCCc1nc(Cl)c(CO)n1CCCOc1cc2c(Nc3cccc(I)c3)ncnc2cc1OC", "values": [
      {"measurement": "IC50", "setting": "A431 (human)", "result": 9.95, "unit": "µM"}
    ]},
    {"smiles": "CCCCc1nc(Cl)c(C=O)n1CCCOc1cc2c(Nc3cccc(F)c3)ncnc2cc1OC", "values": [
      {"measurement": "IC50", "setting": "A431 (human)", "result": 12, "unit": "µM"}
    ]},
    {"smiles": "COc1cc2ncnc(Nc3cccc(C(F)(F)F)c3)c2cc1OCCCSc1nc2ccccc2s1", "values": [
      {"measurement": "IC50", "setting": "A431 (human)", "result": 4.05, "unit": "µM"},
      {"measurement": "IC50", "setting": "MCF-7 (human)", "result": 35.9, "unit": "µM"}
    ]},
    {"smiles": "COc1cc2ncnc(Nc3ccc(C)cc3)c2cc1OCCCSc1nc2ccccc2o1", "values": [
      {"measurement": "IC50", "setting": "A431 (human)", "result": 12.1, "unit": "µM"}
    ]},
    {"smiles": "CCCCc1nc(Cl)c(C=O)n1CCCOc1cc2c(Nc3ccc(Br)cc3CC)ncnc2cc1OC", "values": [
      {"measurement": "IC50", "setting": "A431 (human)", "result": 6.56, "unit": "µM"}
    ]},
    {"smiles": "CCCCc1nc(Cl)c(CO)n1CCCOc1cc2c(Nc3ccc(F)c(Cl)c3)ncnc2cc1OC", "values": [
      {"measurement": "IC50", "setting": "A431 (human)", "result": 5.99, "unit": "µM"}
    ]},
    {"smiles": "COc1ccc(Nc2ncnc3cc(OC)c(OCCCSc4nc5ccccc5s4)cc23)cc1", "values": [
      {"measurement": "IC50", "setting": "A431 (human)", "result": 14.2, "unit": "µM"}
    ]},
    {"smiles": "CCCCc1nc(Cl)c(C=O)n1CCCOc1cc2c(Nc3cccc(Br)c3)ncnc2cc1OC", "values": [
      {"measurement": "IC50", "setting": "A431 (human)", "result": 6.44, "unit": "µM"}
    ]},
    {"smiles": "CCCCc1nc(Cl)c(C=O)n1CCCOc1cc2c(Nc3cccc(I)c3)ncnc2cc1OC", "values": [
      {"measurement": "IC50", "setting": "A431 (human)", "result": 3, "unit": "µM"},
      {"measurement": "IC50", "setting": "MCF-7 (human)", "result": 32.6, "unit": "µM"}
    ]},
    {"smiles": "COc1cc2ncnc(Nc3ccc(F)c(Cl)c3)c2cc1OCCCSc1nc2ccccc2s1", "values": [
      {"measurement": "IC50", "setting": "A431 (human)", "result": 5.37, "unit": "µM"}
    ]},
    {"smiles": "CCc1cc(Br)ccc1Nc1ncnc2cc(OC)c(OCCCSc3nc4ccccc4s3)cc12", "values": [
      {"measurement": "IC50", "setting": "A431 (human)", "result": 5.87, "unit": "µM"}
    ]}
  ]
}
